Experimental data published in PMC7217877, “N-AS-triggered SPMs are direct regulators of microglia in a model of Alzheimer’s disease” (Nature Communications, 2020).
Where “and” joins values, the source holds several entries; their conditions need not be identical. Equal values may be shown once.

Legend:
APP/PS1 mice [1] = assay: flow cytometry of brain microglia polarity (CD86/CD206, Fig 4e); format: in vivo, mouse; settings: APP/PS1 + N-AS, individual values
Method: (§1) Transgenic mouse lines over-expressing the hAPP695swe (APP) and presenilin-1M146V (PS1) mutations were originated from GlaxoSmithKline (Harlow, UK)[32] and maintained as described previously. We purchased 5×FAD mice from Jackson Labs (Stock number. 34840-JAX). Because APP/PS1 and 5xFAD mice show sex differences in disease progression, we used only male mice. To examine possible therapeutic effect of N-AS and aspirin in APP/PS1 mice, the N-AS (30 mg kg^−1, Sigma-Aldrich, 01912) was injected daily s.c. for 8 weeks to 7-months-old APP/PS1 mice until the age of 9 months, and aspirin (2 mg kg^−1, Sigma-Aldrich, A5376)[33] was administrated orally to 7-months-old APP/PS1 mice for 8 weeks. Also, to confirm possible therapeutic efficacy of N-AS in 5×FAD, the N-AS (30 mg kg^−1, Sigma-Aldrich, 01912) was injected daily s.c. for 4 weeks to 3-months-old 5×FAD mice until the age of 4 months. Block randomization method was used to allocate the animals to experimental groups. To eliminate the bias, we were blinded in experimental progress such as data collection and data analysis. Mice were housed at temperature of 22 °C and a 12 h day/12 h night cycle with free access to tap water and food pellets. All protocols were approved by the Kyungpook National University Institutional Animal Care and Use Committee.
Brain microglia polarity and immune cells in brain and blood were analyzed by flow cytometry. Cells from WT, APP/PS1, and APP/PS1 treated with N-AS mice brain were prepared as previously described with minor modifications. Brains of WT, APP/PS1, and APP/PS1 treated with N-AS mice were dissected and immediately transferred in ice-cold HBSS (Gibco). After gentle mincing, the brain was digested in a HBSS solution containing collagenase P (0.2 mg ml^−1, Roche), dispase II (0.8 mg ml^−1, Roche), DNase I (0.01 mg ml^−1, Roche), and collagenase A (0.3 mg ml^−1, Roche) at 37 °C for 1 h under gentle rocking. […] Red blood cells were lysed once at 4 °C for 10 min in 0.15 M NH4Cl ([…] Technologies), washed once with PBS (Gibco), and counted using cell counter (Logos biosystems). […]

APP/PS1 mice [2] = assay: mRNA levels of NEP, MMP9, IDE, CD36 in microglia (Supplementary Fig 5c); format: in vivo, mouse; design: CD36 mRNA level in microglia / NEP mRNA level in microglia / MMP9 mRNA level in microglia / IDE mRNA level in microglia: scale not given here
Method: as §1
For total RNA extraction from the microglia derived from WT, APP/PS1, APP/PS1 mice treated with N-AS, and APP/PS1 mice treated with aspirin, the cells were isolated from the cortex of WT, APP/PS1, APP/PS1 mice treated with N-AS, or aspirin using the methods described above. Total RNA was isolated using the kit components according to the manufacturer’s instructions (RNeasy mini kit, 74134, QIAGEN). cDNA was synthesized from 5 μg of total RNA using a commercially available kit (Takara). Quantitative real-time PCR was performed using a Corbett research RG-6000 real-time PCR instrument. Primers are described in Supplementary Table 5.

[3] = tested on: immortalized human microglia; assay: live-cell phagocytosis assay (bead uptake, Supplementary Fig 6e,f); format: cell-based
Method: Live-cell phagocytosis assays were performed according to previously described procedures with minor modifications. Briefly, in a glass bottom cell culture dish (SPL, 101350), adult SV40 immortalized human microglia cells (Applied Biologics Materials, T0251) were seeded for phagocytosis assay. […] After incubation, the microglia were treated with 0 or 2.5 μM N-AS (Sigma-Aldrich, 01912) at 37 °C for 2 h. FITC beads (Invitrogen) preopsonized in FBS (Gibco) were added at a concentration at 0.01% and then immediately observed using a laser scanning confocal microscope equipped with a live cell chamber system (FV3000, Olympus) for 2 h. Confocal images were collected every 5 min for 2 h and analyzed using the ImageJ software (National Institutes of Health).

APP/PS1 mice [4] = assay: tau hyperphosphorylation (AT8) quantification (Fig 6g); format: in vivo, mouse
Method: Thioflavin S (Sigma-Aldrich) staining was carried out according to previously described procedures. We used 6E10 (mouse, 1:100, Signet, SIG39300), anti-20G10 (mouse, 1:1000, provided by D. R. Howlett, GlaxoSmithKline, Harlow, Essex, UK) for Aβ42, anti-G30 (rabbit, 1:1000, provided by D. R. Howlett) for Aβ40, SMA (mouse, 1:400, Sigma-Aldrich, A2547), AT8 (mouse, 1:500, Thermo Fisher Scientific, MN1020), Caspase-3 (mouse, 1:200, Novus Biologicals, NB100-56708), ac-S565 (rabbit, 1:100), COX2 (mouse, 1:250, Thermo Fisher Scientific, 35-8200), Iba1 (rabbit, 1:500, Wako, 019-19941 and goat, Abcam, ab5076), NeuN (mouse, 1:500, Millipore, MAB177), GFAP (rabbit, 1:500, Dako, N1506 and chicken, 1:500, Abcam, ab4674), and Lamp1 (mouse, 1:200, Abcam, ab24170). The sections were analyzed with a laser-scanning confocal microscope (FV3000; Olympus) or with a BX51 microscope (Olympus). MetaMorph software (Molecular Devices) was used to quantification. Three-dimensional reconstruction of microglia was recorded and analyzed using IMARIS software (Bitplane)[11]. For the analysis of age-dependent microglial COX2^+ CX3CR1^+ cells in WT and APP/PS1 mice, COX2 (rabbit, 1:100, Abcam, ab15191) and CX3CR1 (mouse, 1:100, BioLegend, 149008) antibody were used and the images were acquired on Alexa 488 and APC Channel with performed using Operetta CLS and Analysis Software 4.5 (Perkin-Elmer). […]

[5] = APP/PS1 + N-AS, individual values, sFig 5c

CCCCCCCCCCCCC/C=C/[C@@H](O)[C@H](CO)NC(C)=O [N-AS, N-((2S,3R,E)-1,3-Dihydroxyoctadec-4-en-2-yl)acetamide]
calculated percentage of CD86+ CD206+ cells (APP/PS1 mice [1]): 1.29 and 0.77 and 0.87 and 1.7 and 1.28 and 1.46
calculated percentage of CD86+ CD206- (pro-inflammatory microglia) cells (APP/PS1 mice [1]): 0.012 and 0.071 and 0.011 and 0.023 and 0.034 and 0.025
calculated percentage of CD86- CD206+ (anti-inflammatory microglia) cells (APP/PS1 mice [1]): 3.06 and 1.43 and 2.01 and 2.77 and 2.35 and 2.46
CD36 mRNA level in microglia (APP/PS1 mice [2]; [5]): 0.97 and 0.75 and 0.78 and 0.69 and 0.81 and 0.87 and 0.79 and 0.61
IDE mRNA level in microglia (APP/PS1 mice [2]; [5]): 0.68 and 0.56 and 0.55 and 0.48 and 0.82 and 0.81 and 0.71 and 0.78 and 0.77
MMP9 mRNA level in microglia (APP/PS1 mice [2]; [5]): 0.87 and 0.47 and 0.35 and 0.38 and 0.69 and 0.52 and 0.57 and 1.05 and 0.8
NEP mRNA level in microglia (APP/PS1 mice [2]; [5]): 0.96 and 0.5 and 0.52 and 0.57 and 0.56 and 0.59 and 0.64 and 0.85 and 0.88
CD36 expression (APP/PS1 mice [2]; APP/PS1 treated with N-AS): enhanced
expression of Aβ degrading enzymes (NEP, MMP9, IDE) (APP/PS1 mice [2]; WT, APP/PS1 vehicle, APP/PS1 N-AS): remained unchanged between the groups
phagocytosis capacity, in words ([3]; Aβ-treated human microglia + N-AS): improved SPM production and phagocytosis capacity
Final number of beads per cell (at 120 min) ([3]; human microglia, Ab 0mM, sFig 6f): 20 and 14 and 16 and 11 and 13 and 15
tau hyperphosphorylation (AT8) quantification (Figure 6g) (APP/PS1 mice [4]; APP/PS1 + N-AS, individual animals): 0.1647 and 0.1634 and 0.2394 and 0.275 and 0.2281 and 0.1841
tau hyperphosphorylation (APP/PS1 mice [4]; APP/PS1 treated with N-AS): reduced
